Earlier results in US20240082160A1, “AMLODIPINE DRY SUSPENSION AND PREPARATION METHOD THEREFOR” (GUANGZHOU APICHOPE PHARMACEUTICAL CO., LTD., priority 2021, published 2024).

SMILES: CCOC(=O)C1=C(COCCN)NC(C)=C(C(=O)OC)C1c1ccccc1Cl (stereo not shown) [amlodipine besylate]
- solubility in water: slightly soluble in water
